Experimental data from patent US9670227B2, “Thienopyrimidine derivatives, a process for their preparation and pharmaceutical compositions containing them” (LES LABORATOIRES SERVIER, priority 2013, dated 2017).

Experiments:
[1] = test system: H929 multiple myeloma tumour line; test: In vitro cytotoxicity, Microculture Tetrazolium Assay; assay type: cell-based; conditions: Homo sapiens, NCI-H929, 48 h, H929 cells, 48 hours exposure, MTT; read-out: IC50 (μM) MTT H929
Procedure: The cytotoxicity studies were carried out on the H929 multiple myeloma tumour line.
The cells are distributed onto microplates and exposed to the test compounds for 48 hours.

[2] = molecular target: Mcl-1 protein (UniProtKB primary accession number: Q07820) (Homo sapiens, UniProt Q07820); test: Inhibition of Mcl-1 by fluorescence polarisation, Method 1; assay type: binding; conditions: fluorescence polarisation; Method 1, or Method 2; read-out: IC50 (M) Mcl-1 FP
Chain of Mcl-1 protein (Q07820 whole entry): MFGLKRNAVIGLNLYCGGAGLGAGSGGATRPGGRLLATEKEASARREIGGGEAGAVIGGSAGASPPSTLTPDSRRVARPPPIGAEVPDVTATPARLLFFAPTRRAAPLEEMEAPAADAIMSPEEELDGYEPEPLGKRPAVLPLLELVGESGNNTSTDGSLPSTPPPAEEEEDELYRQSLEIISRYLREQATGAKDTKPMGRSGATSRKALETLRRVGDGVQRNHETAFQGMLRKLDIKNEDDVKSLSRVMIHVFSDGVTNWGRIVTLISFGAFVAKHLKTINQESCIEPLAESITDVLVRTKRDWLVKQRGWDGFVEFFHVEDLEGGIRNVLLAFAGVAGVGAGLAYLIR
Summary of the method: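 Compounds were tested as 11-point serial dilutions at 5% final DMSO against 5 nM Mcl-1 with 1 nM fluorescein-labelled ligand in 10 mM HEPES, 150 mM NaCl, 0.05% Tween 20, pH 7.4. Relative binding potency was read by fluorescence polarisation.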

| SMILES | IC50 [1] | IC50 [2] |
| --- | --- | --- |
| CCCCn1nccc1COc1ccccc1CC(Oc1ncnc2sc(-c3ccc(OC)cc3)c(-c3ccc(OCCN4CCN(C)CC4)c(Cl)c3C)c12)C(=O)O [Example 603, (2R)-3-{2-[(1-butyl-1H-pyrazol-5-yl)methoxy]phenyl}-2-{[(5Sa)-5-{3-chloro-2-methyl-4-[2-(4-methylpiperazin-1-yl)ethoxy]phenyl}-6-(4-methoxyphenyl)thieno[2,3-d]pyrimidin-4-yl]oxy}propanoic acid] | 0.036 µM | 5e-09 M |
| CCCCn1nccc1COc1ccccc1CC(Oc1ncnc2sc(-c3ccc(OCC)cc3)c(-c3ccc(OCCN4CCN(C)CC4)c(Cl)c3C)c12)C(=O)O [Example 604, (2R)-3-{2-[(1-butyl-1H-pyrazol-5-yl)methoxy]phenyl}-2-{[(5Sa)-5-{3-chloro-2-methyl-4-[2-(4-methylpiperazin-1-yl)ethoxy]phenyl}-6-(4-ethoxyphenyl)thieno[2,3-d]pyrimidin-4-yl]oxy}propanoic acid] | 0.064 µM | 5.7e-09 M |
| CCCCn1nccc1COc1ccccc1CC(Oc1ncnc2sc(-c3ccc(-c4ccc(Cl)nc4)nc3)c(-c3ccc(OCCN4CCN(C)CC4)c(Cl)c3C)c12)C(=O)O [Example 605, (2R)-3-{2-[(1-butyl-1H-pyrazol-5-yl)methoxy]phenyl}-2-{[6-(6′-chloro-2,3′-bipyridin-5-yl)-(5Sa)-5-{3-chloro-2-methyl-4-[2-(4-methylpiperazin-1-yl)ethoxy]phenyl}thieno[2,3-d]pyrimidin-4-yl]oxy}propanoic acid] | 0.254 µM | 8.2e-09 M |
| CCCCn1nccc1COc1ccccc1CC(Oc1ncnc2sc(-c3ccc(Cl)nc3)c(-c3ccc(OCCN4CCN(C)CC4)c(Cl)c3C)c12)C(=O)O [Example 606, (2R)-3-{2-[(1-butyl-1H-pyrazol-5-yl)methoxy]phenyl}-2-{[(5Sa)-5-{3-chloro-2-methyl-4-[2-(4-methylpiperazin-1-yl)ethoxy]phenyl}-6-(6-chloropyridin-3-yl)thieno[2,3-d]pyrimidin-4-yl]oxy}propanoic acid] | 0.064 µM | 4e-09 M |
| CCCCn1nccc1COc1ccccc1CC(Oc1ncnc2sc(-c3ccc(F)nc3)c(-c3ccc(OCCN4CCN(C)CC4)c(Cl)c3C)c12)C(=O)O [Example 607, (2R)-3-{2-[(1-butyl-1H-pyrazol-5-yl)methoxy]phenyl}-2-{[(5Sa)-5-{3-chloro-2-methyl-4-[2-(4-methylpiperazin-1-yl)ethoxy]phenyl}-6-(6-fluoropyridin-3-yl)thieno[2,3-d]pyrimidin-4-yl]oxy}propanoic acid] | 0.04 µM | 3.5e-09 M |
| CCCCn1nccc1COc1ccccc1CC(Oc1ncnc2sc(-c3ccc(OC)nc3)c(-c3ccc(OCCN4CCN(C)CC4)c(Cl)c3C)c12)C(=O)O [Example 608, (2R)-3-{2-[(1-butyl-1H-pyrazol-5-yl)methoxy]phenyl}-2-{[(5Sa)-5-{3-chloro-2-methyl-4-[2-(4-methylpiperazin-1-yl)ethoxy]phenyl}-6-(6-methoxypyridin-3-yl)thieno[2,3-d]pyrimidin-4-yl]oxy}propanoic acid] | 0.021 µM | 4.2e-09 M |
| CCCCn1nccc1COc1ccccc1CC(Oc1ncnc2sc(-c3cccnc3)c(-c3ccc(OCCN4CCN(C)CC4)c(Cl)c3C)c12)C(=O)O [Example 609, (2R)-3-{2-[(1-butyl-1H-pyrazol-5-yl)methoxy]phenyl}-2-{[(5Sa)-5-{3-chloro-2-methyl-4-[2-(4-methylpiperazin-1-yl)ethoxy]phenyl}-6-(pyridin-3-yl)thieno[2,3-d]pyrimidin-4-yl]oxy}propanoic acid] | 0.063 µM | 3.5e-09 M |
| CCCCn1nccc1COc1ccccc1CC(Oc1ncnc2sc(-c3ccn(C)n3)c(-c3ccc(OCCN4CCN(C)CC4)c(Cl)c3C)c12)C(=O)O [Example 610, (2R)-3-{2-[(1-butyl-1H-pyrazol-5-yl)methoxy]phenyl}-2-{[(5Sa)-5-{3-chloro-2-methyl-4-[2-(4-methylpiperazin-1-yl)ethoxy]phenyl}-6-(1-methyl-1H-pyrazol-3-yl)thieno[2,3-d]pyrimidin-4-yl]oxy}propanoic acid] | 0.091 µM | 3.5e-09 M |
| C#Cc1sc2ncnc(OC(Cc3ccccc3OCc3ccnn3CCCC)C(=O)O)c2c1-c1ccc(OCCN2CCN(C)CC2)c(Cl)c1C [Example 611, (2R)-3-{2-[(1-butyl-1H-pyrazol-5-yl)methoxy]phenyl}-2-[((5Sa)-5-{3-chloro-2-methyl-4-[2-(4-methylpiperazin-1-yl)ethoxy]phenyl}-6-ethynylthieno[2,3-d]pyrimidin-4-yl)oxy]propanoic acid] | 0.23 µM | 3.9e-09 M |
| CCC#Cc1sc2ncnc(OC(Cc3ccccc3OCc3ccnn3CCCC)C(=O)O)c2c1-c1ccc(OCCN2CCN(C)CC2)c(Cl)c1C [Example 612, (2R)-3-{2-[(1-butyl-1H-pyrazol-5-yl)methoxy]phenyl}-2-{[6-(but-1-yn-1-yl)-(5Sa)-5-{3-chloro-2-methyl-4-[2-(4-methylpiperazin-1-yl)ethoxy]phenyl}thieno[2,3-d]pyrimidin-4-yl]oxy}propanoic acid] | 0.02 µM | 3.5e-09 M |
| CCCCn1nccc1COc1ccccc1CC(Oc1ncnc2sc(C#CCOC)c(-c3ccc(OCCN4CCN(C)CC4)c(Cl)c3C)c12)C(=O)O [Example 613, (2R)-3-{2-[(1-butyl-1H-pyrazol-5-yl)methoxy]phenyl}-2-{[(5Sa)-5-{3-chloro-2-methyl-4-[2-(4-methylpiperazin-1-yl)ethoxy]phenyl}-6-(3-methoxyprop-1-yn-1-yl)thieno[2,3-d]pyrimidin-4-yl]oxy}propanoic acid] | 0.158 µM | 3.5e-09 M |
| CCCCn1nccc1COc1ccccc1CC(Oc1ncnc2sc(C(F)(F)F)c(-c3ccc(OCCN4CCN(C)CC4)c(Cl)c3C)c12)C(=O)O [Example 615, (2R)-3-{2-[(1-butyl-1H-pyrazol-5-yl)methoxy]phenyl}-2-{[(5Sa)-5-{3-chloro-2-methyl-4-[2-(4-methylpiperazin-1-yl)ethoxy]phenyl}-6-(trifluoromethyl)thieno[2,3-d]pyrimidin-4-yl]oxy}propanoic acid] | 0.292 µM | 8e-10 M |
| CCCCn1nccc1COc1ccccc1CC(Oc1ncnc2sc(-c3ccc(OCCN4CCOCC4)cc3)c(-c3ccc(OCCN4CCN(C)CC4)c(Cl)c3C)c12)C(=O)O [Example 616, (2R)-3-{2-[(1-butyl-1H-pyrazol-5-yl)methoxy]phenyl}-2-[((5Sa)-5-{3-chloro-2-methyl-4-[2-(4-methylpiperazin-1-yl)ethoxy]phenyl}-6-{4-[2-(morpholin-4-yl)ethoxy]phenyl}thieno[2,3-d]pyrimidin-4-yl)oxy]propanoic acid] | 0.07 µM | 4e-09 M |
| CCCCn1nccc1COc1ccccc1CC(Oc1ncnc2sc(CCCOC)c(-c3ccc(OCCN4CCN(C)CC4)c(Cl)c3C)c12)C(=O)O [Example 617, (2R)-3-{2-[(1-butyl-1H-pyrazol-5-yl)methoxy]phenyl}-2-{[(5Sa)-5-{3-chloro-2-methyl-4-[2-(4-methylpiperazin-1-yl)ethoxy]phenyl}-6-(3-methoxypropyl)thieno[2,3-d]pyrimidin-4-yl]oxy}propanoic acid] | 0.277 µM | 5.4e-09 M |
| CCCCn1nccc1COc1ccccc1CC(Oc1ncnc2sc(-c3ccc(N4CCOCC4)nc3)c(-c3ccc(OCCN4CCN(C)CC4)c(Cl)c3C)c12)C(=O)O [Example 619, (2R)-3-{2-[(1-butyl-1H-pyrazol-5-yl)methoxy]phenyl}-2-[((5Sa)-5-{3-chloro-2-methyl-4-[2-(4-methylpiperazin-1-yl)ethoxy]phenyl}-6-[6-(morpholin-4-yl)pyridin-3-yl]thieno[2,3-d]pyrimidin-4-yl)oxy]propanoic acid] | 0.336 µM | 7e-09 M |
| CCCCn1nccc1COc1ccccc1CC(Oc1ncnc2sc(-c3ccc(NCCOC)nc3)c(-c3ccc(OCCN4CCN(C)CC4)c(Cl)c3C)c12)C(=O)O [Example 620, (2R)-3-{2-[(1-butyl-1H-pyrazol-5-yl)methoxy]phenyl}-2-[((5Sa)-5-{3-chloro-2-methyl-4-[2-(4-methylpiperazin-1-yl)ethoxy]phenyl}-6-{6-[(2-methoxyethyl)amino]pyridin-3-yl}thieno[2,3-d]pyrimidin-4-yl)oxy]propanoic acid] | 0.532 µM | 5.9e-09 M |
| CCCCn1nccc1COc1ccccc1CC(Oc1ncnc2sc(-c3ccc(OCCN4CCOCC4)nc3)c(-c3ccc(OCCN4CCN(C)CC4)c(Cl)c3C)c12)C(=O)O [Example 621, (2R)-3-{2-[(1-butyl-1H-pyrazol-5-yl)methoxy]phenyl}-2-[((5Sa)-5-{3-chloro-2-methyl-4-[2-(4-methylpiperazin-1-yl)ethoxy]phenyl}-6-{6-[2-(morpholin-4-yl)ethoxy]pyridin-3-yl}thieno[2,3-d]pyrimidin-4-yl)oxy]propanoic acid] | 0.095 µM | 5.3e-09 M |
| CCCCn1nccc1COc1ccccc1CC(Oc1ncnc2sc(-c3ccc(OCCOC)nc3)c(-c3ccc(OCCN4CCN(C)CC4)c(Cl)c3C)c12)C(=O)O [Example 622, (2R)-3-{2-[(1-butyl-1H-pyrazol-5-yl)methoxy]phenyl}-2-[((5Sa)-5-{3-chloro-2-methyl-4-[2-(4-methylpiperazin-1-yl)ethoxy]phenyl}-6-[6-(2-methoxyethoxy)pyridin-3-yl]thieno[2,3-d]pyrimidin-4-yl)oxy]propanoic acid] | 0.109 µM | 1.1e-08 M |
